Converted amounts (≈) assume the structure as drawn. One block for each compound: values may come before it.
Experiments:
[1] = Solid stability experiment: high temperature, high humidity (crystal form A of the Example 35 compound); format: physicochemical; details: 60° C.; room temperature/92.5% RH; 50° C. and 75% RH; 5, 10, 20 and 30 days
Method: (§1) The content was determined by HPLC using the external standard method. The related substance change was calculated by chromatographic peak area normalization method.

[2] = Determination of stable crystal form by comparing DSC spectrums (Example 35 compound); format: physicochemical
Text: The objective is to find stable crystal forms of the compound (S)-8-(6-amino-5-((2-amino-3-chloropyridin-4-yl)thio)pyrazin-2-yl)-2-cyclopropyl-8-azaspiro[4.5]dec-2-en-1-amine by polymorphic screening.
Three crystal forms of (S)-8-(6-amino-5-((2-amino-3-chloropyridin-4-yl)thio)pyrazin-2-yl)-2-cyclopropyl-8-azaspiro[4.5]dec-2-en-1-amine, i.e., crystal forms A, B and C, were obtained by pulping, changing crystallization solvent and crystallization method.

[3] = Crystal transformation investigation: pressure (tabletting) and grinding; format: physicochemical; details: compressed into tablets; ground 15 minutes
Text: The tablets were mashed to powder and characterized by XRPD.

[4] = Solubility experiment in different media (crystal form A of the Example 35 compound); format: physicochemical; details: 37° C., 2 hours, buffers pH 1 to 8, water, FaSGF, FaSSIF, FeSSIF
[5] = Hygroscopicity experiment (crystal form A of the Example 35 compound); format: physicochemical
[6] = Pharmacokinetics study in rats of crystal form A of the Example 35 compound, single oral administration; format: in vivo; details: SD rats, intragastric, 10 mg/kg
[7] = Solid stability experiment under light (amorphous form, crystal forms A and B of the Example 53 compound); format: physicochemical
Method: as §1

[8] = Solubility experiment in different media (crystal form B of the Example 53 compound); format: physicochemical; details: thermodynamic from solid, 37° C.
Method: The solubility of crystal form B of (S)-1′-(6-amino-5-((2-amino-3-chloropyridin-4-yl)thio)-3-fluoropyrazin-2-yl)-1,3-dihydrospiro[indene-2,4′-piperidin]-1-amine in media such as water, Simulated Gastric Fluid (SGF), Fasted State Simulated Intestinal Fluid (FaSSIF) and Fed State Simulated Intestinal Fluid (FeSSIF) was compared, so as to provide a basis for evaluating the druggability.
About 2 mg of crystal form B of (S)-1′-(6-amino-5-((2-amino-3-chloropyridin-4-yl)thio)-3-fluoropyrazin-2-yl)-1,3-dihydrospiro[indene-2,4′-piperidin]-1-amine was suspended in different media for 24 hours, respectively.

[9] = Polymorphic screening and determination of stable crystal form (Example 53 compound), DSC comparison; format: physicochemical
Text: The objective is to find stable crystal forms of (S)-1′-(6-amino-5-((2-amino-3-chloropyridin-4-yl)thio)-3-fluoropyrazin-2-yl)-1,3-dihydrospiro[indene-2,4′-piperidin]-1-amine by polymorphic screening.
Organic solvents and water with a certain solubility was chosen to suspend (S)-1′-(6-amino-5-((2-amino-3-chloropyridin-4-yl)thio)-3-fluoropyrazin-2-yl)-1,3-dihydrospiro[indene-2,4′-piperidin]-1-amine in the solvent system, and the mixture was stirred and slurried at room temperature for one week, and then centrifuged. The supernatant was discarded, and the solid was dried under vacuum (−0.1 Mpa) at 40° C. overnight. The XRPD, DSC and TGA of the solid was determined and compared.
Five crystal forms of (S)-1′-(6-amino-5-((2-amino-3-chloropyridin-4-yl)thio)-3-fluoropyrazin-2-yl)-1,3-dihydrospiro[indene-2,4′-piperidin]-1-amine, i.e., crystal forms A, B, C, D and E, were obtained by pulping, changing crystallization solvent and crystallization method.

[10] = Hygroscopicity experiment (crystal form B of the Example 53 compound); format: physicochemical
Text: The hygroscopicity of crystal form B of the compound (S)-1′-(6-amino-5-((2-amino-3-chloropyridin-4-yl)thio)-3-fluoropyrazin-2-yl)-1,3-dihydrospiro[indene-2,4′-piperidin]-1-amine under different relative humidity conditions was investigated, so as to provide a basis for the crystal form screening and storage of the compound.
Crystal form B of (S)-1′-(6-amino-5-((2-amino-3-chloropyridin-4-yl)thio)-3-fluoropyrazin-2-yl)-1,3-dihydrospiro[indene-2,4′-piperidin]-1-amine was placed in saturated water vapor with different relative humidity to achieve dynamic equilibrium between the compound and water vapor, and the percentage of hygroscopic weight gain of the compound after the equilibrium was calculated.

[11] = Pharmacokinetics assay in mice; format: in vivo; details: Balb/c mice
Method: (§2) Balb/c mice were used as test animals.
(§3) The solution was subjected to ultrasound to obtain a clear solution. […] The concentration was 0.2 mg/mL.
After an overnight fast, male Balb/c mice were administered intravenously with the test compounds at an administration dose of 1 mg/kg and an administration volume of 5 mL/kg.
(§4) Blood was taken before administration and at 0 minute, 5 minutes, 15 minutes, 0.5 hour, 1.0 hour, 2.0 hours, 4.0 hours, 8.0 hours and 24.0 hours after administration. The blood samples were stored in EDTA-2K tubes, and centrifuged for 6 minutes at 6000 rpm, at 4° C. to separate the blood plasma. The plasma samples were stored at −80° C. The mice were fed 4 hours after administration.

[12] = Pharmacokinetics assay in rats; format: in vivo; details: SD rats
Method: SD rats were used as test animals.
as §3
After an overnight fast, male SD rats (3 rats per group) were administered intravenously with the test compounds at an administration dose of 1 mg/kg and an administration volume of 5 mL/kg.
as §4, with “0.2 mL of blood” for “Blood”, “taken from jugular vein” for “taken”, “C.” for “C. The mice were fed 4 hours after administration.”

[13] = Tolerance assay in mice (body weight, abnormal responses); format: in vivo, Balb/c mice; details: oral 10 mg/kg QD
Method: as §2
5 g of hydroxyethyl cellulose (HEC, CMC-Na, viscosity: 800-1200 Cps) was dissolved in 1000 mL of purified water, and 10 g of Tween 80 was added. The solution was mixed well to form a clear solution.
The solution was subjected to ultrasound for 10 minutes to obtain a colorless and clear solution with a concentration of 1 mg/mL.
After an overnight fast, Balb/c mice (3 male and 3 female) were administrated orally with the test compound at an administration dose of 10 mg/kg and an administration volume of 10 mL/kg.
The mice were weighed daily before and after administration, and abnormal responses were observed. The mice were fed 4 hours after administration.

[14] = Light 5000 ± 500 lux (sealed), Day 0
[15] = Light 5000 ± 500 lux (sealed), Day 5
[16] = Light 5000 ± 500 lux (sealed), Day 10

Structure (SMILES): Nc1nc(N2CCC3(CC=C(C4CC4)[C@H]3N)CC2)cnc1Sc1ccnc(N)c1Cl [(S)-8-(6-amino-5-((2-amino-3-chloropyridin-4-yl)thio)pyrazin-2-yl)-2-cyclopropyl-8-azaspiro[4.5]dec-2-en-1-amine]
Impurity increase [1]: less than 0.15% | Thermodynamic stability by comparing DSC spectrums of crystal forms A, B and C [2]: better thermodynamic stability | Crystal transformation after tabletting and grinding (XRPD) [3]: didn't undergo crystal transformation | Solubility compared in different media [4]: better solubility under acidic conditions | Crystal form (XRPD) after one cycle of humidification and dehumidification ([5]; 0 to 95% relative humidity): the crystal form didn't transform | Hygroscopic weight gain ([5]; RH 80%): about 0.544% | Hygroscopicity ([5]; RH 80%): slight hygroscopicity | Metabolic property (pharmacokinetics experiment in rats) [6]: good metabolic property

Structure (SMILES): Nc1nc(N2CCC3(CC2)Cc2ccccc2[C@H]3N)c(F)nc1Sc1ccnc(N)c1Cl [amorphous form of (S)-1′-(6-amino-5-((2-amino-3-chloropyridi] [(S)-1′-(6-amino-5-((2-amino-3-chloropyridin-4-yl)thio)-3-fluoropyrazin-2-yl)-1,3-dihydrospiro[indene-2,4′-piperidin]-1-amine]
10-day total impurities gain ([7]; light 5000 lx±500 lx, 10 days): 19.34%

Structure (SMILES): Nc1nc(N2CCC3(CC2)Cc2ccccc2[C@H]3N)c(F)nc1Sc1ccnc(N)c1Cl [(S)-1′-(6-amino-5-((2-amino-3-chloropyridin-4-yl)thio)-3-fluoropyrazin-2-yl)-1,3-dihydrospiro[indene-2,4′-piperidin]-1-amine]
solubility thermodynamic at 24 h ([8]; simulated gastric fluid, SGF): 2050 µg/mL (≈ 4340 µM) | solubility thermodynamic at 24 h ([8]; Fa (Fasted State Simulated Intestinal Fluid, FaSSIF)): 170 µg/mL (≈ 360 µM) | solubility thermodynamic at 24 h ([8]; Fe (Fed State Simulated Intestinal Fluid, FeSSIF)): 64 µg/mL (≈ 136 µM) | solubility thermodynamic at 24 h ([8]; water): 1 µg/mL (≈ 2.12 µM)

Continued, in another order:

Content (HPLC) Day 0 [7, 14]: 98.34% | Total impurities [7, 14]: 1.66% | Content (HPLC) Day 5 [7, 15]: 97.28% | Total impurities [7, 15]: 2.72% | Total impurities gain ([7]; Light 5000 ± 500 lux (sealed), Day 5 vs Day 0): 1.06% | Content (HPLC) Day 10 [7, 16]: 96.46% | Total impurities [7, 16]: 3.54% | Total impurities gain ([7]; Light 5000 ± 500 lux (sealed), Day 10 vs Day 0): 1.88% | Crystal form (XRPD) after one cycle of humidification and dehumidification ([10]; 0 to 95% relative humidity): the crystal form didn't transform | Hygroscopic weight gain ([10]; RH 80%): about 1.639% | Hygroscopicity ([10]; RH 80%): slight hygroscopicity
Structure (SMILES): Nc1nc(N2CCC3(CC2)Cc2ccccc2[C@H]3N)c(F)nc1Sc1ccnc(N)c1Cl [crystal form B of (S)-1′-(6-amino-5-((2-amino-3-chloropyridi] [(S)-1′-(6-amino-5-((2-amino-3-chloropyridin-4-yl)thio)-3-fluoropyrazin-2-yl)-1,3-dihydrospiro[indene-2,4′-piperidin]-1-amine]
Thermodynamic stability by comparing DSC spectrums of crystal forms A, B, C, D and E [9]: best thermodynamic stability among the five crystal forms

F [11]: 71% | F [12]: 118%
Structure (SMILES): Nc1nc(N2CCC3(CC2)Cc2ccccc2[C@H]3N)c(F)nc1Sc1ccnc(N)c1Cl [Example 53, (S)-1′-(6-amino-5-((2-amino-3-chloropyridin-4-yl)thio)-3-fluoropyrazin-2-yl)-1,3-dihydrospiro[indene-2,4′-piperidin]-1-amine]
Body weight (Mean), Day 1 ([13]; female Balb/c mice): 22.07 g | Body weight (Mean), Day 16 ([13]; female Balb/c mice): 25.09 g | Body weight changes ΔW/W1 (Mean), Day 16 ([13]; female Balb/c mice): 13.80% | Body weight (Mean), Day 1 ([13]; male Balb/c mice): 23.01 g | Body weight (Mean), Day 16 ([13]; male Balb/c mice): 28.30 g | Body weight changes ΔW/W1 (Mean), Day 16 ([13]; male Balb/c mice): 23.25%

From patent US20230134869A1, “CRYSTAL FORM OF FREE ALKALI OF NITROGEN-CONTAINING AROMATIC DERIVATIVES” (Shanghai Hansoh Biomedical Co., Ltd., priority 2020, published 2023)
